One assay concerns the target insulin/DQ8 (Homo sapiens, UniProt P01909+P01920). The assay is described as follows: Inhibition of DQ8 antigen presentation to insulin-responsive CD4 TCR transductant (Clone 5), secreted IL-2 by ELISA. It is filed as cell-based. The note with it: for IC50 / Clone 5 IC50 (insulin/DQ8): Clone 5 TCR transductant, HLA-DQ8 antigen presenting cells with insulin peptide, secreted IL-2; for inhibition of an insulin-responsive CD4 T cell receptor (TCR) transductant: FIG. 3A / FIG. 4A, secreted IL-2 by ELISA, result in words. On the procedure:
(§1) Inhibition of DQ8 antigen presentation by compounds of this disclosure was tested and compared in vitro. HLA-DQ8 antigen presenting cells were cultured with a fixed concentration of peptide and a concentration of one of the tested compounds for 4 hours. TCR transductants were then added to each culture condition and cultured overnight. Secreted IL-2 from the TCR transductant was measured by ELISA for each condition.
(§2) In these figures, 0 represents the TCR transductant response to peptide without the addition of the test compound.
(In an ELISA, binding on a coated surface is turned into a signal by an enzyme label.)

In the next assay the target is α-gliadin/DQ8 (Homo sapiens, UniProt P01909+P01920). The assay is described as follows: Inhibition of DQ8 antigen presentation to gliadin-responsive CD4 TCR transductant (489), secreted IL-2 by ELISA. The class given is cell-based. The settings on record: for IC50 / 489 IC50 (α-gliadin/DQ8): 489 TCR transductant, HLA-DQ8 antigen presenting cells with α-gliadin peptide, secreted IL-2; for inhibition of gliadin-responsive CD4 TCR: FIG. 3B / FIG. 4B, secreted IL-2 by ELISA, result in words. On the procedure: as §1, §2
α-gliadin/DQ8, sequence (P01920 33-261 limits assumed, other chains not shown): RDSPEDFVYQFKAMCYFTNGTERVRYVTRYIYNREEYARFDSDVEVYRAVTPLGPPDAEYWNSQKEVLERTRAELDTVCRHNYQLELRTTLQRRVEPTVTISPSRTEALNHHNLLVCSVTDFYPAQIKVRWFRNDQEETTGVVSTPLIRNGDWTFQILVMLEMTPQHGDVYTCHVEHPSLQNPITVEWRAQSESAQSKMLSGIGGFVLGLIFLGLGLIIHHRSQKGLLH

insulin/DQ8, sequence (P01920 33-261 limits assumed, other chains not shown): as above

For `C[C@@](N)(Cc1ccc(O)c(O)c1)C(=O)O` (stereo in doubt) [α-methyldopa, 2-amino-3-(3,4-dihydroxyphenyl)-2-methylpropanoic acid], at insulin/DQ8, the concentration for half-maximal inhibition (IC50) (usually the concentration needed to halve the response being measured) was 3.4 µM and the “inhibition of an insulin-responsive CD4 T cell receptor (TCR) transductant” value is on record as “concentration-dependent inhibition”. Besides, on α-gliadin/DQ8, the half-inhibitory concentration (IC50) was 17.7 µM and the “inhibition of gliadin-responsive CD4 TCR” value is “concentration-dependent inhibition”.
Turning to `CC(N)[C@H](O)c1ccc(O)c(O)c1` (stereo in doubt) [α-methylnorepinephrine, 4-(2-amino-1-hydroxypropyl)benzene-1,2-diol], on insulin/DQ8, the “Clone 5 IC50 (insulin/DQ8)” value is “No inhibition”. For the same compound, at α-gliadin/DQ8, the “489 IC50 (α-gliadin/DQ8)” value is “No inhibition”.
Take `CC(C)(C)C(N)(Cc1ccc(O)c(O)c1)C(=O)O.Cl` (centres unmarked) [Compound F994-0666]: the “inhibition of an insulin-responsive CD4 T cell receptor (TCR) transductant” value at insulin/DQ8 is “concentration-dependent inhibition”. Also, the “inhibition of gliadin-responsive CD4 TCR” value at α-gliadin/DQ8 was “concentration-dependent inhibition”.
Regarding `CCOC(=O)C(C)(N)Cc1ccc(O)c(O)c1` (stereo not drawn) [α-methyldopa ethyl ester, Ethyl-2-amino-3-(3,4 dihydroxyphenyl)-2-methylpropanoate], the IC50 turned out to be 5.8 µM at insulin/DQ8 and 7.8 µM on α-gliadin/DQ8.
`CC(N)(Cc1ccccc1)C(=O)O` (stereo not drawn) [α-methylphenylalanine, 2-amino-2-methyl-3-phenylpropanoic acid]: the “Clone 5 IC50 (insulin/DQ8)” value at insulin/DQ8 is “No inhibition”. Besides, at α-gliadin/DQ8, the “489 IC50 (α-gliadin/DQ8)” value is “No inhibition”.
With `CC(N)(Cc1ccc(O)cc1)C(=O)O` (stereo not drawn) [α-methyltyrosine, 2-amino-3-(4-hydroxyphenyl)-2-methylpropanoic acid], at insulin/DQ8, the “Clone 5 IC50 (insulin/DQ8)” value is reported as “No inhibition”. Moreover, the “489 IC50 (α-gliadin/DQ8)” value on α-gliadin/DQ8 is recorded as “No inhibition”.

For the origin of these results see patent US11052060B2, “Compounds and methods for treating autoimmunity” (ImmunoMolecular Therapeutics, INC., priority 2018, dated 2021).
